Assay results reported in patent publication US8426419B2, “Tyrosine kinase inhibitors containing a zinc binding moiety” (Curis, Inc., priority 2006, dated 2013).

How the values were obtained:
HDAC = HDAC fluorimetric assay kit (AK-500, Biomol), HeLa nuclear extract; format: biochemical
Procedure: HDAC inhibitors is screened using an HDAC fluorimetric assay kit (AK-500, Biomol, Plymouth Meeting, Pa.).
Each assay is setup as follows: Defrost all kit components and kept on ice until use. […] Prepare dilutions of Trichostatin A (TSA, positive control) and tested compounds in assay buffer (5× of final concentration). Dilute Fluor de Lys™ Substrate in assay buffer to 100 uM (50 fold=2× final). Dilute Fluor de Lys™ developer concentrate 20-fold (e.g. 50 μl plus 950 μl Assay Buffer) in cold assay buffer. Second, dilute the 0.2 mM Trichostatin A 100-fold in the 1× Developer (e.g. 10 μl in 1 ml; final Trichostatin A concentration in the 1× Developer=2 μM; final concentration after addition to HDAC/Substrate reaction=1 μM). Add Assay buffer, dilute trichostatin A or test inhibitor to appropriate wells of the microtiter plate. Add diluted HeLa extract or other HDAC sample to all wells except for negative controls.

[1] = target: T1, human Abl1 (Pro118-Ser553) (Homo sapiens, UniProt P00519); test: HTScan tyrosine kinase assay, Abl1; format: biochemical; conditions: read-out: ABL IC50
T1 construct: human Abl1 (Pro118-Ser553); GST (N); purchased Cell Signaling Technologies; host or cells: baculovirus expression system
T1 sequence (P00519 118-553): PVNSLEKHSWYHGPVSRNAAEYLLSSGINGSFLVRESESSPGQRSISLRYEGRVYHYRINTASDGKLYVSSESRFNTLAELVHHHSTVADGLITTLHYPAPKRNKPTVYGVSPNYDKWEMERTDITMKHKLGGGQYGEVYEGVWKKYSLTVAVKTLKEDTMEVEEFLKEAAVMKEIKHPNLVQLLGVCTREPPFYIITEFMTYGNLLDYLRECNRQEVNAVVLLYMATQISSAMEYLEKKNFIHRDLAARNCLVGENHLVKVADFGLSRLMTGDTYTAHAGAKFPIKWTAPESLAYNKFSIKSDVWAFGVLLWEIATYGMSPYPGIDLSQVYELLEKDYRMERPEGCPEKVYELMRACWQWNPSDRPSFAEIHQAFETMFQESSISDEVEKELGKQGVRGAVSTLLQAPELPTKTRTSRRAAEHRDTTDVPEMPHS
Procedure: (§1) The proteins are purified by one-step affinity chromatography using glutathione-agarose. An anti-phosphotyrosine monoclonal antibody, P-Tyr-100, is used to detect phosphorylation of biotinylated substrate peptides (Abl1 and Src, Biotin-Signal Transduction Protein (Tyr160); c-Kit, Biotinylated-KDR (Tyr996); PDGFR-β, Biotinylated-FLT3 (Tyr589)). […] Data are plotted using GraphPad Prism (v4.0a) and IC50's are calculated using a sigmoidal dose response curve fitting algorithm.
(§2) Each assay is setup as follows: 100 μl of 10 mM ATP is added to 1.25 ml 6 mM substrate peptide. […] The enzyme is immediately transferred from −80° C. to ice. The enzyme is allowed to thaw on ice. […] 25 μl of 2× ATP/substrate cocktail is added to 25 μl/well preincubated reaction cocktail/compound. The reaction plate is incubated at room temperature for 30 minutes. […] 100 μl/well primary antibody is added and the mixture is incubated at room temperature for 60 minutes. The plates are again washed three times with 200 μl/well PBS/T. Europium labeled anti-mouse IgG is diluted 1:500 in PBS/T with 1% BSA. 100 μl/well diluted antibody is added and the mixture is incubated at room temperature for 30 minutes. The plate is washed five times with 200 μl/well PBS/T. 100 μl/well DELFIA® Enhancement Solution is added and the mixture is incubated at room temperature for 5 minutes. 615 nm fluorescence emission is detected using an appropriate Time-Resolved Plate Reader.

[2] = target: T2, full length human Src (Met1-Leu536) (Homo sapiens, UniProt P12931); test: HTScan tyrosine kinase assay, Src; format: biochemical
T2 construct: full length human Src (Met1-Leu536); GST (N); purchased Cell Signaling Technologies; host or cells: baculovirus expression system
Procedure: as §1, §2

[3] = target: T3, human PDGFR-beta (Arg561-Leu1106) (Homo sapiens, UniProt P09619); test: HTScan tyrosine kinase assay, PDGFR-beta; format: biochemical; conditions: read-out: PDGFb IC50
T3 construct: fragment (Arg561-Leu1106); GST (N); His6 (N); thrombin cleavage site (N); purchased Cell Signaling Technologies; host or cells: baculovirus expression system
Procedure: as §1, §2

[4] = target: T4, human c-Kit (Thr544-Val976) (Homo sapiens, UniProt P10721); test: HTScan tyrosine kinase assay, c-Kit; format: biochemical
T4 construct: human c-Kit (Thr544-Val976); GST (N); purchased Cell Signaling Technologies; host or cells: baculovirus expression system
Procedure: as §1, §2

Lyn = Lyn (Homo sapiens, UniProt P07948); test: Lyn assay (Table B); format: biochemical
Lck = Lck (Homo sapiens, UniProt P06239); test: Lck assay (Table B); format: biochemical
Chain of Lck (P06239 whole entry, species assumed): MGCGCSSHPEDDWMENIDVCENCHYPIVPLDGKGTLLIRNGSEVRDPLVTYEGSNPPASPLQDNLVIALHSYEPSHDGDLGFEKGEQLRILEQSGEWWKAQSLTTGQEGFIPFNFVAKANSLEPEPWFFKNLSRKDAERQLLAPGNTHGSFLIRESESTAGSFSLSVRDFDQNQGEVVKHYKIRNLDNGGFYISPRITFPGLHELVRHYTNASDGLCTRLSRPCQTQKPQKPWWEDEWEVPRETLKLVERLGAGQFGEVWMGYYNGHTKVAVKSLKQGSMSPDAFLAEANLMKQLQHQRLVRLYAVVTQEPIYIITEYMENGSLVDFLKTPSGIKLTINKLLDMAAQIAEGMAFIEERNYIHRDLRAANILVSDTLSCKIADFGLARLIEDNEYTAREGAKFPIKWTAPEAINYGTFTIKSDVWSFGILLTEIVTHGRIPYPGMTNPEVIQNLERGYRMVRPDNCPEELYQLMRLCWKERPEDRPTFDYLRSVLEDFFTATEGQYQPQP

T4 sequence (P10721 544-976): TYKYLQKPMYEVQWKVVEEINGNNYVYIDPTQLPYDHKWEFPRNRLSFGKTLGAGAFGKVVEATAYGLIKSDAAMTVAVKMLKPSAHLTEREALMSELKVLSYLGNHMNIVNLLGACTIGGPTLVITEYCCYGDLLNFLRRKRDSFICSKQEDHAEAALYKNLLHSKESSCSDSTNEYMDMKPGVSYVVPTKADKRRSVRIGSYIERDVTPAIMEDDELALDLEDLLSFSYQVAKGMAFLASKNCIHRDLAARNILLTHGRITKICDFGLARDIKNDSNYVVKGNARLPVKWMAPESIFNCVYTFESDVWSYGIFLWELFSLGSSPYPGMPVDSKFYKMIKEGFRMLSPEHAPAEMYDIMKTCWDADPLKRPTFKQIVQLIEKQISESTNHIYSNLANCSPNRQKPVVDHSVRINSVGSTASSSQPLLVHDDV
Chain of Lyn (P07948 whole entry, species assumed): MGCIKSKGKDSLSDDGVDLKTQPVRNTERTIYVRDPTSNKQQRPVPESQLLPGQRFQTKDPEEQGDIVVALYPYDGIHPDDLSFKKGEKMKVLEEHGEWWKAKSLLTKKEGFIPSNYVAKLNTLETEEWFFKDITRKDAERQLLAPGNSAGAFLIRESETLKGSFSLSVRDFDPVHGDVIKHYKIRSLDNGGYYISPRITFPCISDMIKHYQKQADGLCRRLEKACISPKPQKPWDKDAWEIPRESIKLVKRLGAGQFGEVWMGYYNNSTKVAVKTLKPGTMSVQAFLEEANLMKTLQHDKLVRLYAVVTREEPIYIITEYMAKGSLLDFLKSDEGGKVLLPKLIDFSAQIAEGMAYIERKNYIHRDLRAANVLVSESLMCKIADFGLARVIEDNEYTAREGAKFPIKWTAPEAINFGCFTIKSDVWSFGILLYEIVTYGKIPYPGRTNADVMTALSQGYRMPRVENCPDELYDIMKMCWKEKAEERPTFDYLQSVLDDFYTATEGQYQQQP
T2 sequence (P12931 whole entry): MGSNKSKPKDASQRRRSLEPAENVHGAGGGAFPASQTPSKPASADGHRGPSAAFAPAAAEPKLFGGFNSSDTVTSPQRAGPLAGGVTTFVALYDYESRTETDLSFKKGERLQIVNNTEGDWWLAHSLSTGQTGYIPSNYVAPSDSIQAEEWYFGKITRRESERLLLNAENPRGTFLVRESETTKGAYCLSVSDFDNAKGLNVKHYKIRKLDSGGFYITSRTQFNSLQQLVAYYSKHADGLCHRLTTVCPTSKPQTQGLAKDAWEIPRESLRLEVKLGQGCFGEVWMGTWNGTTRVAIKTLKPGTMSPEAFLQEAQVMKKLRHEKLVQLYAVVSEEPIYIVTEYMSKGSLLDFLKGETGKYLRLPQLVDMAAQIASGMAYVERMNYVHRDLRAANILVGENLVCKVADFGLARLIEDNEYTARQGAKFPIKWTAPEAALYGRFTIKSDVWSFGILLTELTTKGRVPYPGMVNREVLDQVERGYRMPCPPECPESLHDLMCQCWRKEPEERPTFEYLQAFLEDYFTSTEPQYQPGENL
T3 sequence (P09619 561-1106): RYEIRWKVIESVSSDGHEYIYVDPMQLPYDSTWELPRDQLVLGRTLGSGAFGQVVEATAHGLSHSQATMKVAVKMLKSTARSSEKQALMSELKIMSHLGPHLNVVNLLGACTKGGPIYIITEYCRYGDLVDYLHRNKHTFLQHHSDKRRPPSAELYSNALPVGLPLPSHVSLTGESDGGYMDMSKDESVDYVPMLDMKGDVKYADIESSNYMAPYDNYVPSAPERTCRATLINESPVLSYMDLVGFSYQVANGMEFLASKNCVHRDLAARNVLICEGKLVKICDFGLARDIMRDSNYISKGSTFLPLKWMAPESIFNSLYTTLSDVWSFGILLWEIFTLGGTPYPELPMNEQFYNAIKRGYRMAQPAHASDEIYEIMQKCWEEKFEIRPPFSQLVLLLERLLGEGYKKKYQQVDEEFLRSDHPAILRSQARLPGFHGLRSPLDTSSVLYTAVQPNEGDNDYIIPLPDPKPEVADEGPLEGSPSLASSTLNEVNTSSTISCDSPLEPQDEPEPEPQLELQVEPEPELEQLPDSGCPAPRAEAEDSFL

| SMILES | IC50 (HDAC) | IC50 [1] | IC50 [2] | IC50 [3] | IC50 [4] | IC50 (Lyn) | IC50 (Lck) | melting point |
| --- | --- | --- | --- | --- | --- | --- | --- | --- |
| Cc1nc(Nc2ncc(C(=O)Nc3c(C)cccc3Cl)s2)cc(N2CCN(CC(=O)NO)CC2)n1 [Compound 1, N-(2-chloro-6-methylphenyl)-2-(6-(4-(2-(hydroxyamino)-2-oxoethyl)piperazin-1-yl)-2-methylpyrimidin-4-ylamino)thiazole-5-carboxamide] | 1000 to 10000 nM | < 100 nM | < 100 nM | < 100 nM | – | – | – | – |
| Cc1nc(NCCCCCC(=O)NO)cc(Nc2ncc(C(=O)Nc3c(C)cccc3Cl)s2)n1 [Compound 23, N-(2-chloro-6-methylphenyl)-2-(6-(6-(hydroxyamino)-6-oxohexylamino)-2-methylpyrimidin-4-ylamino)thiazole-5-carboxamide] | < 100 nM | < 100 nM | < 100 nM | < 100 nM | < 100 nM | < 100 nM | < 100 nM | – |
| Cc1nc(N)cc(N(CC(=O)NO)c2ncc(C(=O)Nc3c(C)cccc3Cl)s2)n1 [Compound 30] | > 10000 nM | 100 to 1000 nM | 100 to 1000 nM | – | – | – | – | – |
| Cc1nc(Nc2ncc(C(=O)Nc3c(C)cccc3Cl)s2)cc(N2CCN(CCCC(=O)NO)CC2)n1 [Compound 3, N-(2-chloro-6-methylphenyl)-2-(6-(4-(4-(hydroxyamino)-4-oxobutyl)piperazin-1-yl)-2-methylpyrimidin-4-ylamino)thiazole-5-carboxamide] | 1000 to 10000 nM | < 100 nM | < 100 nM | – | – | – | – | – |
| Cc1nc(Nc2ncc(C(=O)Nc3c(C)cccc3Cl)s2)cc(N2CCN(CCC(=O)NO)CC2)n1 [Compound 2, N-(2-Chloro-6-methylphenyl)-2-(6-(4-(3-(hydroxyamino)-3-oxopropyl)piperazin-1-yl)-2-methylpyrimidin-4-ylamino)thiazole-5-carboxamide] | 1000 to 10000 nM | < 100 nM | < 100 nM | < 100 nM | – | – | – | – |
| Cc1nc(NCCNCC(=O)NO)cc(Nc2ncc(C(=O)Nc3c(C)cccc3Cl)s2)n1 [Compound 7, N-(2-chloro-6-methylphenyl)-2-(6-(2-(2-(hydroxyamino)-2-oxoethylamino)ethylamino)-2-methylpyrimidin-4-ylamino)thiazole-5-carboxamide] | > 10000 nM | < 100 nM | < 100 nM | – | – | – | – | – |
| Cc1nc(Nc2ncc(C(=O)Nc3c(C)cccc3Cl)s2)cc(N2CCN(CCCCC(=O)NO)CC2)n1 [Compound 4, N-(2-chloro-6-methylphenyl)-2-(6-(4-(5-(hydroxyamino)-5-oxopentyl)piperazin-1-yl)-2-methylpyrimidin-4-ylamino)thiazole-5-carboxamide] | 100 to 1000 nM | < 100 nM | < 100 nM | < 100 nM | – | – | – | – |
| Cc1nc(NCCCCCCC(=O)NO)cc(Nc2ncc(C(=O)Nc3c(C)cccc3Cl)s2)n1 [Compound 24, N-(2-chloro-6-methylphenyl)-2-(6-(7-(hydroxyamino)-7-oxoheptylamino)-2-methylpyrimidin-4-ylamino)thiazole-5-carboxamide] | < 100 nM | < 100 nM | < 100 nM | < 100 nM | < 100 nM | < 100 nM | < 100 nM | 150.7 °C (dec.) |
| Cc1nc(Nc2ncc(C(=O)Nc3c(C)cccc3Cl)s2)cc(N2CCN(CCCCCC(=O)NO)CC2)n1 [Compound 5, N-(2-chloro-6-methylphenyl)-2-(6-(4-(6-(hydroxyamino)-6-oxohexyl)piperazin-1-yl)-2-methylpyrimidin-4-ylamino)thiazole-5-carboxamide] | < 100 nM | < 100 nM | < 100 nM | < 100 nM | < 100 nM | < 100 nM | – | – |
| Cc1nc(NCCNCCCCCC(=O)NO)cc(Nc2ncc(C(=O)Nc3c(C)cccc3Cl)s2)n1 [Compound 11, N-(2-chloro-6-methylphenyl)-2-(6-(2-(6-(hydroxyamino)-6-oxohexylamino)ethylamino)-2-methylpyrimidin-4-ylamino)thiazole-5-carboxamide] | < 100 nM | < 100 nM | < 100 nM | < 100 nM | < 100 nM | < 100 nM | < 100 nM | – |
| Cc1nc(Nc2ncc(C(=O)Nc3c(C)cccc3Cl)s2)cc(N2CCN(CCCCCCC(=O)NO)CC2)n1 [Compound 6, N-(2-chloro-6-methylphenyl)-2-(6-(4-(7-(hydroxyamino)-7-oxoheptyl)piperazin-1-yl)-2-methylpyrimidin-4-ylamino)thiazole-5-carboxamide] | 100 to 1000 nM | < 100 nM | < 100 nM | < 100 nM | < 100 nM | < 100 nM | – | – |
